Experimental data reported in US11492341B2, “ACLY inhibitors and uses thereof” (Nimbus Artemis, Inc., priority 2018, dated 2022).

Key:
HepG2 cells [1] = assay: ACLY HepG2 14C-pyruvate incorporation assay with serum (IC50 Cholesterol); assay type: cell-based; conditions: Homo sapiens, Table 7, with serum, IC50 Cholesterol per table title and b713 (column head prints Fatty Acid), read-out: ACLY HepG2 ^14C- Pyruvate Assay with serum IC50 Fatty Acid 96 well (IC50)
Procedure: (§1) Example 30. ACLY HepG2 ^14C-Pyruvate Incorporation Assay with Serum
(§2) Compounds of the invention were also assayed in an ACLY HepG2 ^14C-pyruvate incorporation assay with serum (IC50 Cholesterol) and (IC50 Fatty Acid). The protocol of the assay (below) was followed:
(§3) HepG2 cells were seed at 5 k cells/well in 96-well cell culture plate in DMEM with 10% FBS (heat inactivated and 25 mM glucose). After 48 hours, the medium was replaced with fresh medium containing 10% FBS (heat inactivated and 25 mM glucose).
(§4) After 18 hours, the medium was replaced with 200 uL of DMEM (5.5 mM glucose without pyruvate) with or without FBS containing compounds (30, 10, 3.33, 1.11, 0.370, 0.123, 0.041 uM). DMSO concentration was 0.5%. The cells were incubated with compounds at 37° C. for 1 hour.
(§5) 2 μci of [14C]-pyruvate was added per well and the cell samples were incubated at 37° C., 5% CO2 for 5 hours.
(§6) The medium was removed and placed into a 96-well polypropylene deep well plate. 200 uL of 0.1N NaOH was added to each well at room temperature to dissolve cell monolayer. The remaining cell suspension was pooled with medium in a 96-well polypropylene deep well plate. 68 uL of 50% KOH was added to the plate containing medium and cell suspensions and capped.
(§7) Cells were incubated at 70° C. for 1 hour, and then cooled to room temperature.
6. Cholesterol Extraction
1 mL petroleum ether was added per well to extract non-saponifyable lipids (primarily sterols such as cholesterol), shaken vigorously, and centrifuged at 1000 rpm for 5 minutes. 500 μL of the petroleum ether layer was then transferred to a 96 well plate and 200 ul of H2O was added, shaken vigorously, and centrifuged at 1000 rpm for 5 minutes. The petroleum ether layer 500 ul was transferred to a new 96-well plate and evaporated to dryness with SpeedVac overnight. 200 μL of scintillation cocktail was then added and shaken and transferred to a 96 well optiplate and counted using the Microbeta Liquid Scintillation Counter.

HepG2 cells [2] = assay: ACLY HepG2 14C-pyruvate incorporation assay with serum (IC50 Fatty Acid); assay type: cell-based; conditions: Homo sapiens, Table 8, with serum, read-out: ACLY HepG2 ^14C- Pyruvate Assay with serum IC50 Fatty Acid 96 well (IC50)
Procedure: as §1, §2, §3, §4, §5, §6, §7
400 ul of the remaining 500 ul petroleum ether layer was removed and discard. 1 mL petroleum ether was added to the well, shaken vigorously, and centrifuged at 1000 rpm for 5 minutes. All 1100 ul of the petroleum ether layer removed and discarded. The aqueous phase was then acidified with 500 uL of concentrated HCl, checking pH of one or two extracts to make sure pH below 1 (critical, check by PH paper).
8. Fatty acids extraction
1 mL of petroleum ether was added per well to extract saponifyable lipids (extracted as fatty acids originating from saponified lipids such as triglycerides and phospholipids), shaken vigorously, centrifuged at 1000 rpm for 5 min, and 500 uL of the petroleum ether layer was then transferred to a new 96-well deep well plate. Repeat petroleum ether extraction step one more time and pool the petroleum ether extracts. Evaporate to dryness with SpeedVac overnight. 200 μL of scintillation cocktail was added and shaken and transferred to a 96 well optiplate and counted using the Microbeta Liquid Scintillation Counter.

ACL = ACL (Homo sapiens (Human), UniProt P53396); assay: ADP-Glo Assay; assay type: biochemical; conditions: 3 nM ACL, 15 μM ATP, 3 μM CoA, 300 μM Citrate
Chain of ACL (P53396 whole entry, species assumed): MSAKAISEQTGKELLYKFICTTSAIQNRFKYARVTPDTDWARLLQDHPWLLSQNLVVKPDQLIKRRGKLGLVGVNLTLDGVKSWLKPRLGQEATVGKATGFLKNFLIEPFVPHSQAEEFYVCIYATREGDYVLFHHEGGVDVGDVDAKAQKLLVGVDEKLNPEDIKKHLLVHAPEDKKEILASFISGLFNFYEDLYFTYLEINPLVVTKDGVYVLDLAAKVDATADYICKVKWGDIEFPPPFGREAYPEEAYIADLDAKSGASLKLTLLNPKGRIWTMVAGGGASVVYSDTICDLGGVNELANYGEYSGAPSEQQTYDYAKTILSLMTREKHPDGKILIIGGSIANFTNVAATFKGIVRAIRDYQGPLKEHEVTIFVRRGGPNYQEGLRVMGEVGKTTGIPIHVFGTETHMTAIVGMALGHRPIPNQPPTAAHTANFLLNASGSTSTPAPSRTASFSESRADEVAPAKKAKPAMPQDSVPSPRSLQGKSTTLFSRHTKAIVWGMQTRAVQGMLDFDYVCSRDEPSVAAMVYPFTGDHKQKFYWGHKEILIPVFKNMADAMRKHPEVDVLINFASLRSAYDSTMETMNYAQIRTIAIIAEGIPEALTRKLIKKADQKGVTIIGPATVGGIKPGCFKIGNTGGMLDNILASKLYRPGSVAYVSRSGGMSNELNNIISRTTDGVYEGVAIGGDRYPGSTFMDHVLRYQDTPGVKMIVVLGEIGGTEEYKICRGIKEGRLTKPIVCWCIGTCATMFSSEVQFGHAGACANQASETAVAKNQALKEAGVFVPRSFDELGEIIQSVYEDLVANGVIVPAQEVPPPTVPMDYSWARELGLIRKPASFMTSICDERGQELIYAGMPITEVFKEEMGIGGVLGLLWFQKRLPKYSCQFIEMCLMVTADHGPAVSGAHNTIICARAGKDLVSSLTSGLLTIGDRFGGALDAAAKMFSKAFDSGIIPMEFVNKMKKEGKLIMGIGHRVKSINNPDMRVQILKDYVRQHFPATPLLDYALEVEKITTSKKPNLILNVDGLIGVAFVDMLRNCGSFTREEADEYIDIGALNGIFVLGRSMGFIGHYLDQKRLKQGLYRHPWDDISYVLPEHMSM
Procedure: Example 28. ADP-Glo Assay
Compounds of the present invention were evaluated in an ADP-GLO assay as follows: a) Dilute cpd 1:3 in succession in DMSO by hand for each cpds for 12 pts b) Add 0.1 μL diluted cpd solution to assay plate, each dose with 2 replicates c) Centrifuge 1000 RPM for 1 min d) Add 5 μL ACL working solution to 384-well assay plate, centrifuge 1000 RPM for 1 min e) Incubate at 25° C. for 15 min f) Add 5 μL substrate working solution to initiate reaction g) Final ACL reaction concentrations: 3 nM ACL, 15 μM ATP, 3 μM CoA, 300 μM Citrate, 0.01% Brij35, 4 mM DTT, 1% DMSO; h) Reference final conc: 30 uM starting Conc, 3× dilution, 11+0 points. Test cpd conc: 30/100 uM starting Conc, 3× dilution, 11+0 points. i) Incubate at 25° C. for 60 min j) Add 10 μL ADP Glo reagent, centrifuge 1000 RPM for 1 min k) Incubate at 25° C. for 40 min l) Add 20 μL kinase detection reagent, centrifuge 1000 RPM for 1 min m) Incubate at 25° C. for 40 min n) Read on Envision for US LUM as RLU

IC50 (HepG2 cells [1]) [µM] | IC50 (HepG2 cells [2]) [µM] | IC50 (ACL) [µM] | SMILES
≤ 10 | ≤ 10 | 0.5 to 20 | COc1ccc(-c2cc3cc(Cl)ccc3n2S(=O)(=O)c2cc(Br)cc(Cl)c2O)cn1 [I-28, 4-bromo-2-chloro-6-((5-chloro-2-(6-methoxypyridin-3-yl)-1H-indol-1-yl)sulfonyl)phenol]
≤ 10 | ≤ 10 | 0.5 to 20 | O=S(=O)(c1cc(Br)cc(Cl)c1O)n1c(-c2ccccc2)cc2cc(Cl)ccc21 [I-1, 4-bromo-2-chloro-6-((5-chloro-2-phenyl-1H-indol-1-yl)sulfonyl)phenol]
≤ 10 | ≤ 10 | 0.5 to 20 | COc1ccc(-c2cc3cc(Cl)ccc3n2S(=O)(=O)c2cc(Br)cc(Cl)c2O)cc1 [I-26, 4-bromo-2-chloro-6-((5-chloro-2-(4-methoxyphenyl)-1H-indol-1-yl)sulfonyl)phenol]
≤ 10 | ≤ 10 | 0.5 to 20 | O=S(=O)(c1cc(Br)cc(Cl)c1O)n1c(-c2ccccc2)cc2cc(F)ccc21 [I-42]
– | – | 0.5 to 20 | O=C(c1ccc2cc(-c3ccccc3)n(S(=O)(=O)c3cc(Br)cc(Cl)c3O)c2c1)N1CCC1 [I-145, Azetidin-1-yl(1-((5-bromo-3-chloro-2-hydroxyphenyl)sulfonyl)-2-phenyl-1H-indol-6-yl)methanone]
– | – | 0.5 to 20 | CN(C)C(=O)c1ccccc1-c1cc2cc(Cl)ccc2n1S(=O)(=O)c1cc(Br)cc(Cl)c1O [I-38]
– | – | 0.5 to 20 | O=C(c1cc(Cl)c(O)c(S(=O)(=O)n2c(-c3ccccc3)cc3cc(Cl)ccc32)c1)N1CCC1 [I-52, azetidin-1-yl(3-chloro-5-((5-chloro-2-phenyl-1H-indol-1-yl)sulfonyl)-4-hydroxyphenyl)methanone]
– | – | 0.5 to 20 | O=S(=O)(c1cc(Br)cc(Cl)c1O)n1ccc2ccc(-c3ccccc3)cc21 [I-4, 4-bromo-2-chloro-6-((6-phenyl-1H-indol-1-yl)sulfonyl)phenol]
– | – | 0.5 to 20 | COc1ccc2c(c1)cc(-c1ccccc1)n2S(=O)(=O)c1cc(Br)cc(Cl)c1O [I-31, 4-bromo-2-chloro-6-((5-methoxy-2-phenyl-1H-indol-1-yl)sulfonyl)phenol]
– | – | 0.5 to 20 | O=C(O)c1ccc2cc(-c3ccccc3)n(S(=O)(=O)c3cc(Br)cc(Cl)c3O)c2c1 [I-67]
– | – | 0.5 to 20 | O=S(=O)(c1cccc(Cl)c1O)n1c(-c2ccccc2)cc2cc(Cl)ccc21 [I-63]
≤ 10 | ≤ 10 | 0.5 to 20 | O=S(=O)(c1cc(Br)cc(Cl)c1O)n1c(-c2cccc(F)c2)cc2cc(Cl)ccc21 [I-40]
– | – | 0.5 to 20 | CN(C)C(=O)c1ccc2cc(-c3ccccc3)n(S(=O)(=O)c3cc(Br)cc(Cl)c3O)c2c1 [I-80]
≤ 10 | ≤ 10 | 0.5 to 20 | N#Cc1ccc2c(c1)cc(-c1ccccc1)n2S(=O)(=O)c1cc(Br)cc(Cl)c1O [I-48]
≤ 10 | ≤ 10 | 0.5 to 20 | Cc1c(-c2ccccc2)n(S(=O)(=O)c2cc(Br)cc(Cl)c2O)c2ccc(Cl)cc12 [I-47]
– | – | 0.5 to 20 | CN(C)C(=O)c1ccc(-c2cc3cc(Cl)ccc3n2S(=O)(=O)c2cc(Cl)cc(Cl)c2O)cc1 [I-60]
– | – | < 0.5 | O=S(=O)(c1cc(Br)cc(Cl)c1O)n1c(-c2cccnc2)cc2cc(Cl)ccc21 [I-34]
– | – | 0.5 to 20 | N#Cc1ccc2c(c1)cc(-c1cc3ccccc3s1)n2S(=O)(=O)c1cc(Br)cc(Cl)c1O [I-161]
– | – | 0.5 to 20 | O=C(O)c1ccc(-c2cc3cc(Cl)ccc3n2S(=O)(=O)c2cc(Br)cc(Cl)c2O)cc1 [I-45, 4-(1-((5-bromo-3-chloro-2-hydroxyphenyl)sulfonyl)-5-chloro-1H-indol-2-yl)benzoic acid]

Further lines, the compound ahead of its results:

SMILES | IC50 (HepG2 cells [1]) [µM] | IC50 (HepG2 cells [2]) [µM] | IC50 (ACL) [µM]
N#Cc1ccc2c(c1)cc(-c1ccc(OC(F)(F)F)cc1)n2S(=O)(=O)c1cc(F)cc(F)c1O [I-81] | ≤ 10 | ≤ 10 | 0.5 to 20
Cc1cc2cc(Cl)ccc2n1S(=O)(=O)c1cc(Br)cc(Cl)c1O [I-30, 4-bromo-2-chloro-6-((5-chloro-2-methyl-1H-indol-1-yl)sulfonyl)phenol] | ≤ 10 | ≤ 10 | 0.5 to 20
O=S(=O)(c1cc(Br)cc(Cl)c1O)n1c(-c2cncs2)cc2cc(Cl)ccc21 [I-33, 4-bromo-2-chloro-6-((5-chloro-2-(thiazol-5-yl)-1H-indol-1-yl)sulfonyl)phenol] | ≤ 10 | ≤ 10 | 0.5 to 20
Cc1ncncc1-c1cc2cc(Cl)ccc2n1S(=O)(=O)c1cc(F)cc(F)c1O [I-102] | – | – | 0.5 to 20
Cc1cncc(-c2cc3cc(Cl)ccc3n2S(=O)(=O)c2cc(F)cc(F)c2O)n1 [I-101] | – | – | 0.5 to 20
O=S(=O)(c1cc(Cl)cc(Cl)c1O)N1CC2(CCOCC2)C1c1ccccc1 (stereo not shown) [I-19] | – | – | 0.5 to 20
CN(C)C(=O)c1cc2cc(Cl)ccc2n1S(=O)(=O)c1cc(Cl)cc(Cl)c1O [I-111] | – | – | 0.5 to 20
O=S(=O)(c1cc(F)cc(F)c1O)n1c(-c2ccc(OC(F)(F)F)cc2)cc2cc(Cl)ccc21 [I-51] | – | – | 0.5 to 20
O=C(O)c1ccc2c(c1)cc(-c1ccccc1)n2S(=O)(=O)c1cc(F)cc(F)c1 [I-87] | – | – | 0.5 to 20
O=S(=O)(c1cc(Cl)cc(Cl)c1O)N1Cc2cnn(-c3ccccc3)c2C1 [I-7] | – | – | 0.5 to 20
N#Cc1ccc2c(c1)cc(C1CC1)n2S(=O)(=O)c1cc(F)cc(F)c1O [I-82] | – | – | 0.5 to 20
N#Cc1ccc2c(c1)cc(-c1cnc[nH]1)n2S(=O)(=O)c1cc(F)cc(F)c1O [I-83] | – | – | 0.5 to 20
COC(=O)c1cc(Cl)c(O)c(S(=O)(=O)N2CCc3ccc(-c4ccccc4)cc32)c1 [I-2] | – | – | 0.5 to 20
O=C(c1cc2cc(Cl)ccc2n1S(=O)(=O)c1cc(Cl)cc(Cl)c1O)N1CCCCC1 [I-72] | – | – | 0.5 to 20
COCOc1cc2c(cc1Cl)cc(C)n2S(=O)(=O)c1cc(Br)cc(Cl)c1O [I-150] | – | – | 0.5 to 20
COc1ccc(N2CCN(S(=O)(=O)c3cc(Cl)cc(Cl)c3O)CC2)cc1 [I-16] | – | – | 0.5 to 20
Cn1cc(-c2cc3cc(C#N)ccc3n2S(=O)(=O)c2cc(F)cc(F)c2O)cn1 [I-118] | – | – | ≥ 20
CC(=O)Nc1ccc2c(c1)CN(S(=O)(=O)c1cc(Cl)cc(Cl)c1O)CC2 [I-13] | – | – | 0.5 to 20
COc1c(F)cc2cc(C)n(S(=O)(=O)c3cc(Br)cc(Cl)c3O)c2c1F [I-165] | – | – | 0.5 to 20
Cc1cc2cc(Cl)ccc2n1S(=O)(=O)c1cc(-c2cncs2)cc(Cl)c1O [I-156] | – | – | 0.5 to 20
Cc1nc(=O)c2cc(Cl)ccc2n1S(=O)(=O)c1cc(Br)cc(Cl)c1O [I-155] | – | – | ≥ 20
O=S(=O)(c1cc(Br)cc(Cl)c1O)n1c(-c2ccc(OC(F)(F)F)nc2)cc2cc(Cl)ccc21 [I-146] | – | – | 0.5 to 20
COC(=O)c1c(-c2ccccc2)c2cc(Cl)ccc2n1S(=O)(=O)c1cc(Cl)cc(Cl)c1 [I-120] | – | – | ≥ 20
O=S(=O)(c1cc(F)cc(F)c1O)n1c(-c2cccnn2)cc2cc(Cl)ccc21 [I-99] | – | – | 0.5 to 20
Cc1ncc(-c2cc3cc(Cl)ccc3n2S(=O)(=O)c2cc(F)cc(F)c2O)cn1 [I-100] | – | – | 0.5 to 20
